Measurements published in US20100317647A1 (priority 2009, published 2010).

Biological target: human Cat S (Homo sapiens, UniProt P25774)
Test: Cathepsin enzyme inhibition assay (fluorogenic peptide substrate cleavage)
Assay type: biochemical
Conditions: human Cat S 1 nM; substrate Z-Val-Val-Arg-AMC 20 μM; pH 6.5; fluorescence over 20 minutes
Summary of the method: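 IC50 values derived from fluorescence increase (ex 360 nm, em 465 nm) monitored for 20 minutes after substrate addition. Enzyme held at 1 nM with 20 μM Z-Val-Val-Arg-AMC, in pH 6.5 potassium phosphate buffer containing DTT, EDTA and Triton X-100.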

human Cat S, sequence (P25774 115-331): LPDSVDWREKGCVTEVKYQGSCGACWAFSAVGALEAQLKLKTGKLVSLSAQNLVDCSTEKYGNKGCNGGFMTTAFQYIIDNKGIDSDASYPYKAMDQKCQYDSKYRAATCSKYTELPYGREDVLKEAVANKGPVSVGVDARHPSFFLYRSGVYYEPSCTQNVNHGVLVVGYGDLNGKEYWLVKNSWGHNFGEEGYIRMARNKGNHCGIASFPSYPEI

Structure (SMILES)	IC50
CS(=O)(=O)c1cc(Cl)ccc1CO[C@@H]1C[C@H](S(=O)(=O)c2ccccc2Cl)C[C@H]1C(=O)NC1(C#N)CC1 (racemic) [Example 248, (1R,2R,4R) and (1S,2S,4S)-4-(2-Chloro-benzenesulfonyl)-2-(4-chloro-2-methanesulfonyl-benzyloxy)-cyclopentanecarboxylic acid (1-cyano-cyclopropyl)-amide]	3.5 nM
N#CC1(NC(=O)[C@H]2CC[C@H](S(=O)(=O)c3ccc(-n4cccn4)cc3Cl)C2)CC1 (single isomer, unassigned) [Example 100]	170 nM
N#CC1(NC(=O)[C@@H]2C[C@@H](S(=O)(=O)c3ccc(N4CCN(CC(F)(F)F)CC4)cc3C(F)(F)F)C[C@H]2OC2CCCC2)CC1 (racemic) [Example 230, (1R,2R,4R) and (1S,2S,4S)-2-Cyclopentyloxy-4-{4-[4-(2,2,2-trifluoro-ethyl)-piperazin-1-yl]-2-trifluoromethyl-benzenesulfonyl}-cyclopentanecarboxylic acid (1-cyano-cyclopropyl)-amide]	0.0275 nM
CO[C@@H]1C[C@H](S(=O)(=O)c2ccc(-c3cnn(CC4(C)COC4)c3)cc2C(F)(F)F)C[C@H]1C(=O)NC1(C#N)CC1 (racemic) [Example 214, (1R,2R,4R) and (1S,2S,4S)-2-Methoxy-4-{4-[1-(3-methyl-oxetan-3-ylmethyl)-1H-pyrazol-4-yl]-2-trifluoromethyl-benzenesulfonyl}-cyclopentanecarboxylic acid (1-cyano-cyclopropyl)-amide]	2.85 nM
CO[C@@H]1C[C@H](S(=O)(=O)c2ccc(-c3cncc(C)c3)cc2C(F)(F)F)C[C@H]1C(=O)NC1(C#N)CC1 (racemic) [Example 85, (1R,2R,4R) and (1S,2S,4S)-2-Methoxy-4-[4-(5-methyl-pyridin-3-yl)-2-trifluoromethyl-benzenesulfonyl]-cyclopentanecarboxylic acid (1-cyano-cyclopropyl)-amide]	0.5 nM
N#CCNC(=O)[C@@H]1C[C@@H](S(=O)(=O)Cc2ccccc2)C[C@H]1C(=O)N1CCOCC1 [Example 38, (1R,2R,4R)-2-(Morpholine-4-carbonyl)-4-phenylmethanesulfonyl-cyclopentanecarboxylic acid cyanomethyl-amide]	533 nM
CO[C@@H]1C[C@H](S(=O)(=O)c2ccc(N3CCN(C)CC3)cc2C(F)(F)F)C[C@H]1C(=O)NC1(C#N)CC1 (racemic) [Example 161, (1R,2R,4R) and (1S,2S,4S)-2-Methoxy-4-[4-(4-methyl-piperazin-1-yl)-2-trifluoromethyl-benzenesulfonyl]-cyclopentanecarboxylic acid (1-cyano-cyclopropyl)-amide]	1.5 nM
N#CC1(NC(=O)[C@@H]2C[C@H](S(=O)(=O)c3ccc(Cl)cn3)C[C@H]2C(=O)N2CCC(F)(F)C2)CC1 [Example 226, (1R,2R,4S)-4-(5-Chloro-pyridine-2-sulfonyl)-2-(3,3-difluoro-pyrrolidine-1-carbonyl)-cyclopentanecarboxylic acid (1-cyano-cyclopropyl)-amide]	50 nM
CO[C@@H]1C[C@H](S(=O)(=O)c2ccc(-c3cc(C)nn3C)cc2C(F)(F)F)C[C@H]1C(=O)NC1(C#N)CC1 (racemic) [Example 67, (1R,2R,4R) and (1S,2S,4S)-4-[4-(2,5-Dimethyl-2H-pyrazol-3-yl)-2-trifluoromethyl-benzenesulfonyl]-2-methoxy-cyclopentanecarboxylic acid (1-cyano-cyclopropyl)-amide]	0.6 nM
N#CC1(NC(=O)[C@@H]2C[C@@H](S(=O)(=O)c3ccccn3)C[C@H]2C(=O)N2CCC(F)(F)C2)CC1 [Example 227, (1R,2R,4R)-2-(3,3-Difluoro-pyrrolidine-1-carbonyl)-4-(pyridine-2-sulfonyl)-cyclopentanecarboxylic acid (1-cyano-cyclopropyl)-amide]	0.555 nM
